In patent US20080194574A1, “Pyrazine Derivatives As Effective Compounds Against Infectious Diseases” (AXXIMA PHARMACEUTICALS AG, priority 2003, published 2008):

target: T1, viral kinase pUL-97 (Human cytomegalovirus, UniProt P16788); assay: UL97 kinase assay on Immobilon plate; assay type: biochemical; settings: inhibition of UL 97 kinase activity; class by IC50 / % inhibition at 10 μM or 100 μM; read-out: Activity Class [A, B, C]
T1 construct: The pUL-97 gene was cloned into a baculovirus vector; GST (glutathione S-transferase) (N); made in house; host or cells: Sf9 insect cells, baculovirus
How it was run: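 GST-pUL97 from baculovirus-infected Sf9 cells phosphorylated myelin basic protein with ATP (3 μM in the added assay buffer) and γ-[33P]ATP in Tris-HCl pH 7.5 buffer with MnCl2 and DTT. Reaction ran 1 h at 30 °C with graded compound concentrations and was stopped with EDTA. 33P incorporation was measured by scintillation after filter capture and phosphoric acid washes.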

T1 sequence (P16788 whole entry): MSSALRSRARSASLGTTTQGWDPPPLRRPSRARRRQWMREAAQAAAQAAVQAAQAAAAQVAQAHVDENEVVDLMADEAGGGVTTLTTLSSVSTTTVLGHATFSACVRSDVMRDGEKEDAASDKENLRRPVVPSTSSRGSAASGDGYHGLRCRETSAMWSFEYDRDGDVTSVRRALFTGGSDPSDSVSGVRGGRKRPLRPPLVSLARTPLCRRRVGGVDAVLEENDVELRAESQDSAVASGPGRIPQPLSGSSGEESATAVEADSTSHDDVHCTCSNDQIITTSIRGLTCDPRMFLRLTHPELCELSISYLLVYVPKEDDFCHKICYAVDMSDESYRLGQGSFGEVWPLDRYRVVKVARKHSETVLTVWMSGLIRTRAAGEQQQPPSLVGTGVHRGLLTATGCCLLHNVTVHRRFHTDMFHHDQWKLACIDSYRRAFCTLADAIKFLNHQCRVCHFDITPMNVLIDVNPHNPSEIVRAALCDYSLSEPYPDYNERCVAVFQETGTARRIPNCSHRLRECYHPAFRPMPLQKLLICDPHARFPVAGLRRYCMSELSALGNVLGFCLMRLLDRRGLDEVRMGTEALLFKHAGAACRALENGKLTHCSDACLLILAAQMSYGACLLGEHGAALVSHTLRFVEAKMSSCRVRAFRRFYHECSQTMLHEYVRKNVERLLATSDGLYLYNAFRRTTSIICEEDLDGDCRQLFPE

`COc1cccc(N2CCN(c3cncc(-c4cccc(C(C)=O)c4)n3)CC2)c1` [compound 368, 1-{3-[4-(3-Methoxy-phenyl)-3,4,5,6-tetrahydro-2H-[1,2′]bipyrazinyl-6′-yl]-phenyl}-ethanone] and `CC(=O)c1cccc(-c2cncc(N3CCN(c4ccccn4)CC3)n2)c1` [compound 307, 1-[3-(4-Pyridin-2-yl-3,4,5,6-tetrahydro-2H-[1,2′]bipyrazinyl-6′-yl)-phenyl]-ethanone] fall in the same range of IC50: 1 to 10 µM for the first, 1 to 10 µM for the second.

`Cc1cccc(N2CCN(c3cncc(-c4csc5ccccc45)n3)CC2C)c1` (centres unmarked) [compound 279, 6′-Benzo[b]thiophen-3-yl-3-methyl-4-m-tolyl-3,4,5,6-tetrahydro-2H-[1,2′]bipyrazinyl] and `Fc1ccccc1N1CCN(c2cncc(-c3csc4ccccc34)n2)CC1` [compound 251, 6′-Benzo[b]thiophen-3-yl-4-(2-fluoro-phenyl)-3,4,5,6-tetrahydro-2H-[1,2′]bipyrazinyl] fall in the same range of IC50: 10 to 100 µM for the first, 10 to 100 µM for the second.

`c1ccc(C2CCN(c3cncc(-c4ccsc4)n3)CC2)cc1` [compound 336, 2-(4-Phenyl-piperidin-1-yl)-6-thiophen-3-yl-pyrazine] and `c1ccc(C2CCN(c3cncc(-c4ccc5ccccc5c4)n3)CC2)cc1` [compound 337, 2-Naphthalen-2-yl-6-(4-phenyl-piperidin-1-yl)-pyrazine] fall in the same range of IC50: 1 to 10 µM for the first, 1 to 10 µM for the second.

`N#Cc1ccc(-c2cncc(N3CCN(c4ccccn4)CC3)n2)cc1` [compound 303, 4-(4-Pyridin-2-yl-3,4,5,6-tetrahydro-2H-[1,2′]bipyrazinyl-6′-yl)-benzonitrile] and `OCc1ccc(-c2cncc(N3CCN(c4ccc(Cl)c(Cl)c4)CC3)n2)cc1` [compound 315, {4-[4-(3,4-Dichloro-phenyl)-3,4,5,6-tetrahydro-2H-[1,2′]bipyrazinyl-6′-yl]-phenyl}-methanol] fall in the same range of IC50: 1 to 10 µM for the first, 1 to 10 µM for the second.

First: CC(=O)c1ccc(N2CCN(c3cncc(-c4ccccc4Oc4ccccc4)n3)CC2)cc1 [compound 215, 1-{4-[6′-(2-Phenoxy-phenyl)-2,3,5,6-tetrahydro-[1,2′]bipyrazinyl-4-yl]-phenyl}-ethanone]
Second: COc1ccc(N2CCN(c3cncc(-c4csc5ccccc45)n3)CC2)cc1 [compound 283, 6′-Benzo[b]thiophen-3-yl-4-(4-methoxy-phenyl)-3,4,5,6-tetrahydro-2H-[1,2′]bipyrazinyl]
The IC50 of the first is higher: 10 to 100 µM for the first, 1 to 10 µM for the second.

`COc1ccc(N2CCN(c3cncc(-c4ccccc4C)n3)CC2)cc1OC` [compound 262, 4-(3,4-Dimethoxy-phenyl)-6′-o-tolyl-3,4,5,6-tetrahydro-2H-[1,2′]bipyrazinyl] and `COc1ccc(N2CCN(c3cncc(-c4ccc(C(C)(C)C)cc4)n3)CC2)cc1OC` [compound 263, 6′-(4-tert-Butyl-phenyl)-4-(3,4-dimethoxy-phenyl)-3,4,5,6-tetrahydro-2H-[1,2′]bipyrazinyl] fall in the same range of IC50: 10 to 100 µM for the first, 10 to 100 µM for the second.

`CSc1ccc(-c2cncc(N3CCN(c4ccc(C(F)(F)F)cc4)CC3)n2)cc1` [compound 311, 6′-(4-Methylsulfanyl-phenyl)-4-(4-trifluoromethyl-phenyl)-3,4,5,6-tetrahydro-2H-[1,2′]bipyrazinyl] and `COc1ccc(N2CCN(c3cncc(-c4ccc(C(F)(F)F)cc4)n3)CC2)cc1` [compound 355, 4-(4-Methoxy-phenyl)-6′-(4-trifluoromethyl-phenyl)-3,4,5,6-tetrahydro-2H-[1,2′]bipyrazinyl] fall in the same range of IC50: 1 to 10 µM for the first, 1 to 10 µM for the second.

`Fc1cccc(-c2cncc(N3CCN(c4ccccc4F)CC3)n2)c1` [compound 198, 4-(2-Fluoro-phenyl)-6′-(3-fluoro-phenyl)-3,4,5,6-tetrahydro-2H-[1,2′]bipyrazinyl] and `Fc1cccc(-c2cncc(N3CCN(c4ccc(F)cc4F)CC3)n2)c1` [compound 211, 4-(2,4-Difluoro-phenyl)-6′-(3-fluoro-phenyl)-3,4,5,6-tetrahydro-2H-[1,2′]bipyrazinyl] fall in the same range of IC50: 10 to 100 µM for the first, 10 to 100 µM for the second.

`CC(=O)c1cccc(-c2cncc(N3CCN(c4cnccn4)CC3)n2)c1` [compound 312, 1-[3-(2′,3′,5′,6′-Tetrahydro-[2,1′;4′,2″]terpyrazin-6-yl)-phenyl]-ethanone] and `c1ccc2c(-c3cncc(N4CCN(c5ccncc5)CC4)n3)csc2c1` [compound 222, 6′-Benzo[b]thiophen-3-yl-4-pyridin-4-yl-3,4,5,6-tetrahydro-2H-[1,2′]bipyrazinyl] fall in the same range of IC50: 1 to 10 µM for the first, 1 to 10 µM for the second.

`Cc1ccc(N2CCN(c3cncc(-c4ccc5ccccc5c4)n3)CC2)cc1C` [compound 335, 4-(3,4-Dimethyl-phenyl)-6′-naphthalen-2-yl-3,4,5,6-tetrahydro-2H-[1,2′]bipyrazinyl] and `Fc1ccc(N2CCN(c3cncc(-c4ccc5ccccc5c4)n3)CC2)c(F)c1` [compound 199, 4-(2,4-Difluoro-phenyl)-6′-naphthalen-2-yl-3,4,5,6-tetrahydro-2H-[1,2′]bipyrazinyl] fall in the same range of IC50: 1 to 10 µM for the first, 1 to 10 µM for the second.

First: COc1ccc(N2CCN(c3cncc(-c4ccc(F)cc4)n3)CC2)cc1 [compound 363, 6′-(4-Fluoro-phenyl)-4-(4-methoxy-phenyl)-3,4,5,6-tetrahydro-2H-[1,2′]bipyrazinyl]
Second: OCc1ccc(-c2cncc(N3CCN(c4cccc(C(F)(F)F)c4)CC3)n2)cc1 [compound 254, {4-[4-(3-Trifluoromethyl-phenyl)-3,4,5,6-tetrahydro-2H-[1,2′]bipyrazinyl-6′-yl]-phenyl}-methanol]
The IC50 of the first is lower: 1 to 10 µM for the first, 10 to 100 µM for the second.

same assay, conditions: inhibition of UL 97 kinase activity; class by IC50 / % inhibition at 10 or 100 μM; read-out: Activity Class [A, B, C]

`FC(F)(F)c1cccc(N2CCN(c3cncc(-c4csc5ccccc45)n3)CC2)c1` [compound 158, 6′-Benzo[b]thiophen-3-yl-4-(3-trifluoromethyl-phenyl)-3,4,5,6-tetrahydro-2H-[1,2′]bipyrazinyl] and `Fc1ccc(-c2cncc(N3CCN(c4cccc(C(F)(F)F)c4)CC3)n2)cc1Cl` [compound 157, 6′-(3-Chloro-4-fluoro-phenyl)-4-(3-trifluoromethyl-phenyl)-3,4,5,6-tetrahydro-2H-[1,2′]bipyrazinyl] fall in the same range of IC50: 10 to 100 µM for the first, 10 to 100 µM for the second.

`N#Cc1ccccc1N1CCN(c2cncc(-c3ccc(F)c(Cl)c3)n2)CC1` [compound 62, 2-[6′-(3-Chloro-4-fluoro-phenyl)-2,3,5,6-tetrahydro-[1,2′]bipyrazinyl-4-yl]-benzonitrile] and `Fc1ccc(-c2cncc(N3CCN(c4ccccc4F)CC3)n2)cc1` [compound 114, 4-(2-Fluoro-phenyl)-6′-(4-fluoro-phenyl)-3,4,5,6-tetrahydro-2H-[1,2′]bipyrazinyl] fall in the same range of IC50: 1 to 10 µM for the first, 1 to 10 µM for the second.

`CC(=O)c1cccc(-c2cncc(N3CCN(c4ccccc4)CC3)n2)c1` [compound 112, 1-[3-(4-Phenyl-3,4,5,6-tetrahydro-2H-[1,2′]bipyrazinyl-6′-yl)-phenyl]-ethanone] and `COc1cccc(-c2cncc(N3CCN(c4ccccc4)CC3)n2)c1` [compound 110, 6′-(3-Methoxy-phenyl)-4-phenyl-3,4,5,6-tetrahydro-2H-[1,2′]bipyrazinyl] fall in the same range of IC50: 1 to 10 µM for the first, 1 to 10 µM for the second.

`c1cc(N2CCN(c3cncc(-c4ccsc4)n3)CC2)ccn1` [compound 79, 4-Pyridin-4-yl-6′-thiophen-3-yl-3,4,5,6-tetrahydro-2H-[1,2′]bipyrazinyl] and `c1ccc(-c2cncc(N3CCN(c4ccncc4)CC3)n2)cc1` [compound 67, 6′-Phenyl-4-pyridin-4-yl-3,4,5,6-tetrahydro-2H-[1,2′]bipyrazinyl] fall in the same range of IC50: 1 to 10 µM for the first, 1 to 10 µM for the second.

Compared with `Fc1ccccc1N1CCN(c2cncc(-c3ccoc3)n2)CC1` [compound 126, 4-(2-Fluoro-phenyl)-6′-furan-3-yl-3,4,5,6-tetrahydro-2H-[1,2′]bipyrazinyl], `CCOc1ccc(-c2cncc(N3CCN(c4ccccc4F)CC3)n2)cc1` [compound 127, 6′-(4-Ethoxy-phenyl)-4-(2-fluoro-phenyl)-3,4,5,6-tetrahydro-2H-[1,2′]bipyrazinyl] is higher in IC50: 1 to 10 µM for the first, 10 to 100 µM for the second. The first is the more potent here.

`COc1ccccc1N1CCN(c2cncc(-c3ccc(C(F)(F)F)cc3)n2)CC1` [compound 188, 4-(2-Methoxy-phenyl)-6′-(4-trifluoromethyl-phenyl)-3,4,5,6-tetrahydro-2H-[1,2′]bipyrazinyl] and `COc1ccccc1N1CCN(c2cncc(-c3ccsc3)n2)CC1` [compound 85, 4-(2-Methoxy-phenyl)-6′-thiophen-3-yl-3,4,5,6-tetrahydro-2H-[1,2′]bipyrazinyl] fall in the same range of IC50: 10 to 100 µM for the first, 10 to 100 µM for the second.

First: Clc1ccc(-c2cncc(N3CCN(c4ccccn4)CC3)n2)cc1 [compound 14, 6′-(4-Chloro-phenyl)-4-pyridin-2-yl-3,4,5,6-tetrahydro-2H-[1,2′]bipyrazinyl]
Second: Clc1ccc(-c2cncc(N3CCN(c4ccncc4)CC3)n2)cc1 [compound 47, 6′-(4-Chloro-phenyl)-4-pyridin-4-yl-3,4,5,6-tetrahydro-2H-[1,2′]bipyrazinyl]
The IC50 of the first is higher: 10 to 100 µM for the first, 1 to 10 µM for the second. The second is the more potent here.

`COc1cccc(-c2cncc(N3CCN(c4ccccc4OC)CC3)n2)c1` [compound 105, 4-(2-Methoxy-phenyl)-6′-(3-methoxy-phenyl)-3,4,5,6-tetrahydro-2H-[1,2′]bipyrazinyl] and `Fc1ccc(-c2cncc(N3CCN(c4ccccc4)CC3)n2)cc1` [compound 111, 6′-(4-Fluoro-phenyl)-4-phenyl-3,4,5,6-tetrahydro-2H-[1,2′]bipyrazinyl] fall in the same range of IC50: 1 to 10 µM for the first, 1 to 10 µM for the second.

Compared with `CCCNc1cncc(-c2ccc(C(N)=O)cc2)n1` [compound 25, 4-(6-Propylamino-pyrazin-2-yl)-benzamide], `Clc1cccc(N2CCN(c3cncc(-c4ccsc4)n3)CC2)c1` [compound 80, 4-(3-Chloro-phenyl)-6′-thiophen-3-yl-3,4,5,6-tetrahydro-2H-[1,2′]bipyrazinyl] is higher in IC50: under 1 µM for the first, 10 to 100 µM for the second. The first is the more potent here.

Work on `COc1ccc(N2CCN(c3cncc(-c4ccc(F)cc4F)n3)CC2)cc1OC` [compound 41, 6′-(2,4-Difluoro-phenyl)-4-(3,4-dimethoxy-phenyl)-3,4,5,6-tetrahydro-2H-[1,2′]bipyrazinyl] yielded an IC50 of 10 to 100 µM.
